Reference: patent US10626108B2, “Heterocyclic indoles for use in influenza virus infection” (Janssen Sciences Ireland UC, priority 2015, dated 2020)

Experiments:
in vitro = details: dog
[1] = tested on: influenza virus A/Taiwan/1/86 (H1N1); experiment: organism not typed; format: cell-based; details: 72 h; MDCK cells infected with influenza A/Taiwan/1/86 (H1N1), MOI 0.001 or 0.01; CPE via ATP levels three days post-virus exposure

O=C(N[C@H]1CCC[C@@H](Nc2nc(-c3c[nH]c4c(F)cc(F)cc34)nc(C(=O)O)c2F)C1)c1cnn[nH]1 [Compound 36]
CC50 at 3 days (in vitro): > 25000 nM | IC50 [1]: 7 nM

Cc1nc(-c2c[nH]c3c(F)cc(F)cc23)nc(N[C@H]2CCC[C@@H](NC(=O)c3csc(C(=O)O)n3)C2)c1F [Compound 29]
CC50 at 3 days (in vitro): 21000 nM | IC50 [1]: 2 nM

Cc1nc(-c2c[nH]c3c(F)cc(F)cc23)nc(N[C@H]2CCC[C@@H](NC(=O)c3cn(C)cn3)C2)c1F [Compound 13]
CC50 at 3 days (in vitro): 10400 nM | IC50 [1]: 1 nM

O=C(N[C@H]1CCC[C@@H](Nc2cnnc(-c3c[nH]c4c(F)cc(F)cc34)n2)C1)N1CCCC1 [Compound 28]
CC50 at 3 days (in vitro): 15500 nM | IC50 [1]: 8 nM

Cc1nc(-c2c[nH]c3ncncc23)nc(N[C@@H]2CCC[C@H](NC(=O)c3ccccn3)C2)c1F [Compound 21]
CC50 at 3 days (in vitro): > 25000 nM | IC50 [1]: 1 nM

O=C(N[C@H]1CCC[C@@H](Nc2cncc(-c3c[nH]c4c(F)cc(F)cc34)n2)C1)N1CCCC1 [Compound 25]
CC50 at 3 days (in vitro): 9700 nM | IC50 [1]: 26 nM

O=C(O)[C@H]1C2CCC(CC2)[C@@H]1Nc1cnnc(-c2c[nH]c3c(F)cc(F)cc23)n1 (racemic) [Compound 6]
CC50 at 3 days (in vitro): > 5000 nM | IC50 [1]: 130 nM

Cc1nc(-c2c[nH]c3c(F)cc(F)cc23)nc(N[C@H]2CCC[C@@H](NC(=O)c3cnn(C)c3)C2)c1F [Compound 14]
CC50 at 3 days (in vitro): > 25000 nM | IC50 [1]: 2 nM

Cc1nc(-c2c[nH]c3c(F)cc(F)cc23)nc(N[C@H]2CCC[C@@H](NC(=O)c3cnn[nH]3)C2)c1F [Compound 15]
CC50 at 3 days (in vitro): 3400 nM | IC50 [1]: 0.2 nM
